Reference: patent US20250170159A1, “COMPOSITIONS COMPRISING STING AGONISTS AND METHODS OF USE FOR TREATING GLIOMA” (ImmunoGenesis, Inc., priority 2023, published 2025)

Tests used:
[1] = test system: spontaneous unresected gliomas; settings: dogs; previously shown (ref 12); cited from earlier work
QPP8 glioma cells = settings: administered on days 14, 21, and 28
Description: The total amount of immune cells was quantified based on all live CD45+ cells and specifically on CD11b+Ly6C+ expression of mono-MDSCs. […] Each dot represents an analyzed tumor or LN. FIG. 16E: Expression of immunosuppressive markers CD206 and CD163 spanning myeloid populations and as a function of treatment. FIG. 16F: Myeloid PD-L1 expression on various immune lineages in tumors and LNs.

[2] = test system: spontaneous unresected gliomas; assay: Intratumoral delivery of STING agonist in spontaneous canine high-grade glioma; assay type: in vivo, dog
Experimental: A single ˜5 mm-diameter burr hole craniectomy was made at entry point determined by Brainsight Neuronavigation System.
A 100 uL-Hamilton syringe secured in a calibrated holder on an x-y stage containing 50 μL of Compound C at varying concentrations
Contrast enhancing target was selected using the MRI reconstruction.
Compound of Formula C was injected at a rate of 2 uL/minute.
Compound of Formula C was administered via repeated intratumoral injections up to 20 μg in 50 uL in a large animals (canines) with spontaneous unresected gliomas.

human U87 glioma cells = assay: Humanized mice implanted with human U87 glioma cells; assay type: in vivo, mouse
Description: . (FIG. 15A) Multiplexed sequential immunofluorescence images of the STING expression at baseline in humanized mouse brain implanted with U87 glioma cells and collected at endpoint. The right image represents a high magnification of the white box drawn in the left image. The white arrows highlight CD31+STING+ vessels and green arrows highlight the CD163+STING+ macrophages. […] Scale bars: 500 μm (left panel) and 50 μm (right panel). A higher magnification image of a CD163+STING+ cell is represented at the upper right quadrant of the right image (scale bar: 20 μm). […] MFI, mean fluorescence intensity; h, human; TAM, tumor-associated macrophage; Mono, monocyte; PMN, […]; MDSC, myeloid-derived suppressor cell. […] The markers were assessed via Cytek Aurora flow cytometer and the CD45+CD11b+ population was analyzed for the indicated markers. *P<0.05; ** P<0.01; *** P<0.001; **** P<0.0001 by 2-tailed Student's t test (FIGS. 15E-H).
STING expression on human and murine glioma cells was analyzed (FIG. 15A). […] To evaluate whether this treatment induces an inflammatory response directed against the CNS, the mice were evaluated daily. […]

GL261 glioma cells = settings: FIG. 18B left panel; control MS 25 days
Description: FIG. 18A: Schema of the treatment of immunocompetent mice that underwent i.e. implantation of either GL261 or CT-2A glioma cells. […] FIG. 18C: Schema of the treatment of immunocompetent mice that underwent i.e. implantation of either CT-2A or QPP8v (subclone) glioma cells. […] FIG. 18E: Multiplexed sequential immunofluorescence images of untreated CT-2A gliomas (n=3). […] White boxes outline the portion shown at higher magnification in the right column of images. Scale bars: 500 μm (left 3 columns) and 50 μm (right column).

CT-2A glioma cells = settings: FIG. 18B right panel; control MS 28 days
Experimental: As such, we evaluated synergy in the CT-2A and QPP8v immunocompetent murine glioma models. […] To visualize TME features that would be reflective of response, the CT-2A model was treated on day 7 and during the therapeutic window, the activation of the STING pathway (i.e., p-IRF3) and the immune infiltration were analyzed with multiplexed SeqIF imaging.
PD-1: PD-L1 = molecular target: T1, PD-1: PD-L1 (Homo sapiens, UniProt Q9NZQ7); assay: PD-1 pathway blockade reporter cell assay, PD-L1+ cells; assay type: cell-based; settings: FIG. 9
T1 construct: expressed in transfected cells; host or cells: PD-1 expressing effector cells and PD-L1+ artificial antigen presenting cells
T1 sequence (Q9NZQ7 19-290): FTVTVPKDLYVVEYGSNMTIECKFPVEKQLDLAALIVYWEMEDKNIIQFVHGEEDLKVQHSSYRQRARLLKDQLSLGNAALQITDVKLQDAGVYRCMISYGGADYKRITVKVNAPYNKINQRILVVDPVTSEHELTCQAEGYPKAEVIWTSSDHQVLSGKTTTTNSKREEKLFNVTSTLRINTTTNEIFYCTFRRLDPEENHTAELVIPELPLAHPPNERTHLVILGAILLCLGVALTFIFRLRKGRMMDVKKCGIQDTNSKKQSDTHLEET
Experimental: (§1) A dose range of 50.000-0.015 nM was tested against PD-L1+ cells (FIG. 9A), PD-L2+ cells (FIG. 9B), and a 50:50 mixture of PD-L1+ and PD-L2+ cells (FIG. 9C). Nonlinear regression was used to generate best-fit curves in GraphPad Prism.
(§2) The ability of Ab-27907 to interrupt the PD-1 pathway through binding of the ligands PD-L1 and PD-L2 was tested in a reporter cell system. In this assay, PD-1 expressing effector cells are incubated with artificial antigen presenting cells expressing PD-L1 or PD-L2 with a T cell receptor (TCR). Without any antibodies, luminescence activity is low, as PD-1 binds its ligands, preventing TCR engagement and production of luciferase.

PD-1: PD-L2 = molecular target: T2, PD-1: PD-L2 (Homo sapiens, UniProt Q9BQ51); assay: PD-1 pathway blockade reporter cell assay, PD-L2+ cells; assay type: cell-based; settings: FIG. 9
T2 construct: expressed in transfected cells; host or cells: PD-1 expressing effector cells and PD-L2+ artificial antigen presenting cells
T2 sequence (Q9BQ51 20-273): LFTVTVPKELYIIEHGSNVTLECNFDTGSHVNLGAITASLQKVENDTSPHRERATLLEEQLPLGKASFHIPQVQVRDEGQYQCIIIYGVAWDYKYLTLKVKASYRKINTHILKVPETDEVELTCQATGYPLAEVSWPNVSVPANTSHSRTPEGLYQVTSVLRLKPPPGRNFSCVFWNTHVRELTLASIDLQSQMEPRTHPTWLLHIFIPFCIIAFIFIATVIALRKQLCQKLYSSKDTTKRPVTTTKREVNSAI
Experimental: as §1, §2

[3] = test system: U2940 human B-cell lymphoma, 8505C human thyroid carcinoma, and B16F10-PDL2 murine melanoma tumor cell lines; assay: ADCC reporter cell assay; assay type: cell-based; settings: FIG. 10
Experimental: (§3) A dose range was tested in ADCC (FIGS. 10A, 10C, and 10E) and ADCP FIGS. 10B, 10C, and 10F) assays against U2940 human B-cell lymphoma (FIGS. 10A and 10B), 8505C human thyroid carcinoma (FIGS. 10C and 10D), and B16F10-PDL2 murine melanoma (FIGS. 10E, and 10F) tumor cell lines.

[4] = test system: U2940 human B-cell lymphoma, 8505C human thyroid carcinoma, and B16F10-PDL2 murine melanoma tumor cell lines; assay: ADCP reporter cell assay; assay type: cell-based; settings: FIG. 10
Experimental: as §3

TS/A tumor = assay: TS/A mouse model of mammary carcinoma; settings: versus control group
B16F10-PDL2 tumor = assay: B16F10-PDL2 melanoma tumor-bearing mice; settings: monotherapy, first 2 weeks
Description: Left: Mean±SEM tumor volume (mm^3) is plotted on the y-axis against days post tumor inoculation on the x-axis. Right: Kaplan Meier plots of survival.

Nc1ncnc2c1ccn2[C@@H]1O[C@@H]2COP(=O)(S)O[C@@H]3[C@H](O)[C@@H](COP(=O)(S)O[C@H]2[C@H]1O)O[C@H]3n1cnc2c(N)ncnc21 (stereo partly drawn) [Compound 8779]
radiographic regression in spontaneously arising glioblastomas [1]: induces radiographic regression
therapeutic outcome (QPP8 glioma cells): curative
median survival (MS) (QPP8 glioma cells; control MS=103 days): undefined

Nc1ncnc2c1ccn2[C@@H]1O[C@@H]2COP(=O)(S)O[C@@H]3[C@H](O)[C@@H](COP(=O)(S)O[C@H]2[C@H]1O)O[C@H]3n1cnc2c(N)ncnc21 (stereo partly drawn) [Compound C]
radiographic responses in spontaneously arising high-grade gliomas ([2]; dog, single injection): can produce radiographic responses
MTD ([2]; repeated intratumoral injections in 50 uL, canines with unresected gliomas): 15 to 20 µg

Nc1ncnc2c1ncn2[C@@H]1O[C@@H]2COP(O)(=S)O[C@@H]3C(O)[C@@H](COP(O)(=S)O[C@H]2[C@H]1O)O[C@H]3n1cnc2c(N)ncnc21 (stereo partly drawn) [MLRR-S2-CDA, reference compound]
survival of U87 tumor-bearing animals (human U87 glioma cells; both P<0.0001): significantly extended survival
median survival (MS) (human U87 glioma cells; treated on days 5, 10, and 15, control MS 26.5 days): 35 days

C[C@H](NC(=O)/C(C#N)=C/c1cccc(Br)n1)c1ccccc1 [WP1066, reference compound]
median survival (MS) (GL261 glioma cells): 30 days
median survival (MS) (CT-2A glioma cells): 28 days

B1: Ab-27907: dual functioning PD-L1/PD-L2 monoclonal antibody; Fc point mutations enhance cell-mediated effector functions (antibody, V domains shown)
VH: QVQLVESGGGVIQPGRSLRLSCAASGFTFSAYLMHWVRQAPGKGLEWVAAIGYDGMNKYYADSVKGRFTISRDNSKNTLYLQMNSLRAEDTAVYYCARAGIEYSYAYTDYWGQGTLVTVSS
VL: EIVLTQSPGTLSLSPGERATLSCRASQFVYSSDLAWYQQKPGQAPRLLIYGASARAAGIPDRFSGSGSGTDFTLTISRLEPEDFAVYYCMQFGWWPPRTFGGGTKVEIK
blockade of PD-1: PD-L1 (PD-1: PD-L1): blocks PD-1: PD-L1 as well as pembrolizumab
blockade of PD-1: PD-L2 (PD-1: PD-L2): additionally blocks PD-1: PD-L2
capacity to induce ADCC [3]: robust activity
capacity to induce ADCP [4]: robust activity
survival (TS/A tumor): significant extended survival
tumor growth (B16F10-PDL2 tumor): significantly inhibited tumor growth
